Measured values taken from publication PMC6934184, “Selective DNA-PKcs inhibition extends the therapeutic index of localized radiotherapy and chemotherapy” (The Journal of Clinical Investigation, 2019).

Target: T1, TGFBR2 (Homo sapiens, UniProt P37173)
T1 construct: purchased Thermo Fisher Scientific (Life Technologies) SelectScreen
Test: SelectScreen LanthaScreen
Format: binding
Conditions: read-out: % displacement
Procedure, shortened: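 NU5455 was profiled across the SelectScreen Broad panel of kinase activity and binding assays. Z'LYTE reactions such as CSF1R ran at apparent Km ATP, while the Adapta CAMK1 assay used ATP listed as 10. Values are given as percent.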

T1 sequence (P37173 23-567): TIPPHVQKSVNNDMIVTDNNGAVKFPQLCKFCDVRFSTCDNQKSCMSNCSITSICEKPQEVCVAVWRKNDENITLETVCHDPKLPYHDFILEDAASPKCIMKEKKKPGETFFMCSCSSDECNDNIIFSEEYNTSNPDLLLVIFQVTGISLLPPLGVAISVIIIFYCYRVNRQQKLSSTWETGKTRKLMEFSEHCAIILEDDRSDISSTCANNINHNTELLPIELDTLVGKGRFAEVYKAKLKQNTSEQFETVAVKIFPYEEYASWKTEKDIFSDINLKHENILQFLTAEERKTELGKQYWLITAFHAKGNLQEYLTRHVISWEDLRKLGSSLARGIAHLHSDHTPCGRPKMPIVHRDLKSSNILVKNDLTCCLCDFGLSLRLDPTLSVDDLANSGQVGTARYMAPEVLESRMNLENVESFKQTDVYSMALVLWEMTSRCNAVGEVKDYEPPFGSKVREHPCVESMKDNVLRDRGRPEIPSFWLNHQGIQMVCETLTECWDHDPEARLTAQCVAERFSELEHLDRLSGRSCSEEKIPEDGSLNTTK

CN(C(=O)CN1CCOCC1)c1ccc2sc3c(-c4cccc5c(=O)cc(N6CC7CCC(C6)O7)oc45)cccc3c2c1 [NU5455]
inhibition at 1 µM: -0.1%
